{"source": "the NIST ThermoML archive (doi:10.1016/j.fluid.2012.01.018)", "settings": "101.33 kPa, Liquid, Falling or rolling sphere viscometry", "note": "± gives the expanded uncertainty stated by the source."}
{"molecule": "COCC[N+]1(C)CCOCC1.O=S(=O)([N-]S(=O)(=O)C(F)(F)F)C(F)(F)F", "values": [{"measurement": "viscosity", "setting": "298.15 K", "result": "306.1 ± 19", "unit": "mPa·s"}, {"measurement": "viscosity", "setting": "308.15 K", "result": "155.9 ± 6.4", "unit": "mPa·s"}, {"measurement": "viscosity", "setting": "318.15 K", "result": "90.68 ± 2.5", "unit": "mPa·s"}, {"measurement": "viscosity", "setting": "328.15 K", "result": "57.23 ± 1.2", "unit": "mPa·s"}, {"measurement": "viscosity", "setting": "338.15 K", "result": "38.69 ± 0.84", "unit": "mPa·s"}, {"measurement": "viscosity", "setting": "348.15 K", "result": "27.54 ± 0.6", "unit": "mPa·s"}]}
{"molecule": "COCC[N+]1(C)CCCC1.O=S(=O)([N-]S(=O)(=O)C(F)(F)F)C(F)(F)F", "values": [{"measurement": "viscosity", "setting": "298.15 K", "result": "54.52 ± 1.1", "unit": "mPa·s"}, {"measurement": "viscosity", "setting": "308.15 K", "result": "36.94 ± 0.8", "unit": "mPa·s"}, {"measurement": "viscosity", "setting": "318.15 K", "result": "26.41 ± 0.57", "unit": "mPa·s"}, {"measurement": "viscosity", "setting": "328.15 K", "result": "18.23 ± 0.39", "unit": "mPa·s"}, {"measurement": "viscosity", "setting": "338.15 K", "result": "14.06 ± 0.3", "unit": "mPa·s"}, {"measurement": "viscosity", "setting": "348.15 K", "result": "11.07 ± 0.24", "unit": "mPa·s"}]}
{"molecule": "COCC[N+]1(C)CCCCC1.O=S(=O)([N-]S(=O)(=O)C(F)(F)F)C(F)(F)F", "values": [{"measurement": "viscosity", "setting": "298.15 K", "result": "102.6 ± 3.1", "unit": "mPa·s"}, {"measurement": "viscosity", "setting": "308.15 K", "result": "63.22 ± 1.4", "unit": "mPa·s"}, {"measurement": "viscosity", "setting": "318.15 K", "result": "41.92 ± 0.91", "unit": "mPa·s"}, {"measurement": "viscosity", "setting": "328.15 K", "result": "29.43 ± 0.64", "unit": "mPa·s"}, {"measurement": "viscosity", "setting": "338.15 K", "result": "21.53 ± 0.46", "unit": "mPa·s"}, {"measurement": "viscosity", "setting": "348.15 K", "result": "16.32 ± 0.35", "unit": "mPa·s"}]}
